Experimental data from paper PMC1084349 (BMC Neuroscience, 2005).
Counter-ions that a name gives are not always drawn. Like-named read-outs stand apart in the source and are kept apart here. One block for each molecule: values may come before it.

Experiments:
hTAS1R2-hTAS1R3 = target: T1, hTAS1R2-hTAS1R3 (Homo sapiens, UniProt Q7RTX0+Q8TE23); experiment: Calcium mobilization (FLIPR) in transfected HEK293T-Gα16gust44 cells, human sweet receptor; settings: asp 15 mM; cyc 30 mM; neo 0.1 mM; sac 10 mM; suc 100 mM; stev 1 mM
T1 sequence (Q8TE23 20-839): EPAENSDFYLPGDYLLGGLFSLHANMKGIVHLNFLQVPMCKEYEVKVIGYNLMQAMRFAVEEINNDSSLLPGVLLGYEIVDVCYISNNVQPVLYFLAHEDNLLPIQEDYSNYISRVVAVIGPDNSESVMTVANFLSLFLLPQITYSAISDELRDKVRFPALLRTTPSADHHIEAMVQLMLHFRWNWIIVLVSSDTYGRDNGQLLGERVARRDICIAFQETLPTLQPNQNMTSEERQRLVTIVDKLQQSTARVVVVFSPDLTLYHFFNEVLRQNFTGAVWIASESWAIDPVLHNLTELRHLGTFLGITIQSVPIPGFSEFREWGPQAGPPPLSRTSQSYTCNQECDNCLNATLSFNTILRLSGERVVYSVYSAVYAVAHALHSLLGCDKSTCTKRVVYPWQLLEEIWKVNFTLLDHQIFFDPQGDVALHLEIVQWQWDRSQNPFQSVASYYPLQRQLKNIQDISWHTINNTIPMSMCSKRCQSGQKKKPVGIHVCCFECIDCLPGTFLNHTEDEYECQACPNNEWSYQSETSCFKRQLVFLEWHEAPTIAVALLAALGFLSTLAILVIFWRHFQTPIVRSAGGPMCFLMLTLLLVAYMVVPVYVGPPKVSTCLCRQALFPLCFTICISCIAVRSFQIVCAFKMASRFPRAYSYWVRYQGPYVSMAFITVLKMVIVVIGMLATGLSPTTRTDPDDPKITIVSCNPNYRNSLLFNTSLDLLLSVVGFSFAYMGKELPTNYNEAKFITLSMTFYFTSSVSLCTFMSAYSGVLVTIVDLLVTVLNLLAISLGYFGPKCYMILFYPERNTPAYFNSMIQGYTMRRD
T1 sequence (Q7RTX0 21-852): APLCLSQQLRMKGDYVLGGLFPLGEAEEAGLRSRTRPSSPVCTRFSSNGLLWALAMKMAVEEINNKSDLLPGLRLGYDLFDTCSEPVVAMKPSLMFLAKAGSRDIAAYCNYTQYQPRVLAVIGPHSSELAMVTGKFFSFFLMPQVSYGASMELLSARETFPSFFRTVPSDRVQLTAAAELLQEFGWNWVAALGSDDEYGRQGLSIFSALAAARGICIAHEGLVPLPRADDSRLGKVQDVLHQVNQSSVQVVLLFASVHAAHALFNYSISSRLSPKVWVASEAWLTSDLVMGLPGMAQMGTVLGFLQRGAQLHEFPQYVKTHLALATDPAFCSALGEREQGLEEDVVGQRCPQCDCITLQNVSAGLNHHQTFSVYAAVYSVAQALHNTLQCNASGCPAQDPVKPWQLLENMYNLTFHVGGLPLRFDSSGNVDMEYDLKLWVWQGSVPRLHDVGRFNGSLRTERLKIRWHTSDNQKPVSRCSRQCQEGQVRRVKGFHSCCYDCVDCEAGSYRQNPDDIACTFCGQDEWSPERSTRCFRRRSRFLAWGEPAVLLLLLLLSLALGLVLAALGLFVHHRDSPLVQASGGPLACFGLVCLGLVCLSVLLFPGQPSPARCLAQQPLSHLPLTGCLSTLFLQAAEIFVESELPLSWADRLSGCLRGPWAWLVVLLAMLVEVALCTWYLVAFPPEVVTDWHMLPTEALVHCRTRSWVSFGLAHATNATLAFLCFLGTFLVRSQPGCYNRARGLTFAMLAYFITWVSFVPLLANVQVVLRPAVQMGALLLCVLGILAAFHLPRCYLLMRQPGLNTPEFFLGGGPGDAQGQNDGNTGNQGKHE

[1] = test system: hTAS1R2 and tas1r3-hN-rTM; experiment: Calcium mobilization (FLIPR), chimera with human N-terminus and rat transmembrane region; format: cell-based
Source text: The receptor chimeras of Tas1r3 were constructed using recombinant PCR. In the first reactions the N-terminal and the C-terminal part containing the seven transmembrane domains of hTAS1R3 and rTas1r3 were amplified from plasmid DNA using Ultra Pfu Polymerase (Stratagene). For the hTAS1R3 and rTas1r3 N-termini the forward vector-anchored primer (CMV: […]) and a reverse gene specific primer ([…]) were used. The hTAS1R3 and rTas1r3 C-terminal part were amplified with forward gene specific primer ([…]) and a reverse vector-anchored primer ([…]). PCR conditions were: 5 min, 94°C, 24 cycles 1 min 94°C, 0.5 min 64°C, 2 min 72°C; 5 min 72°C. The amplicons were purified using the Highpure PCR Product Purification Kit (Roche) and used as template for the second PCR. To create the chimeric receptor tas1r3-hN-rTM, equimolar amounts (~50 ng) of the hTAS1R3 N-terminus and rTas1r3 transmembrane domains were combined without additional oligonucleotides. PCR conditions were: 5 min 94°C; 15 cycles of 2 min 64°C, 2 min 72°C and 0.5 min 94°C; followed by 5 min 64°C and 10 min 72°C. […] These chimeras were cloned into pcDNA5/FRT.
(§1) The cDNAs were transiently transfected into HEK293T cells stably expressing the chimeric G-protein subunit Gα16gust44 [20] using Lipofectamine 2000 (Invitrogen) according to the manufacturer's protocol. 3–4 hours after transfection, DMEM was replaced by low-glucose DMEM supplemented with GlutaMAX and 10% dialyzed FBS (Invitrogen). 22–44 hours later, cells were loaded for 1 hour with the calcium sensitive dye Fluo4-AM (2 μg/ml in DMEM, Molecular Probes). Cells were washed 3x in solution C1 (130 mM NaCl, 5 mM KCl, 10 mM Hepes, 2 mM CaCl2, and 5 mM Glucose, pH 7,4). Calcium mobilization was monitored by an automated fluorometric imaging plate reader (FLIPR, Molecular Devices). Ligands (Sigma-Aldrich, Merck) were dissolved in C1 solution. All data were collected from at least two independent experiments carried out in triplicate. The obtained calcium signals were corrected for the response of mock transfected cells and normalized to the fluorescence of cells prior to the stimulus using ΔF/F=(F-F0)/F0. […]
All sweeteners were used at concentrations which were close to the maximal obtainable signal. (c) Alignment of amino acid sequences of the human, rat, and mouse Tas1r3 transmembrane regions. Color code: white, identical; grey, conservative; dark-grey, similar; black, non-similar. TM, predicted transmembrane domain, indicated by a black bar. Dots indicate the location of the primer used to generate the chimeric rat-human Tas1r3 receptors. Asterisks denote amino acid positions that are identical in rat and mouse but variable between humans and rodents and are located in the extracellular loops or the upper part of the transmembran regions. Boxes indicate the several rTas1r3 mutants m1 – m7, including the amino acid substitutions. m6/1 – m6/3 signified the reconverted amino acid of mutant m6.

[2] = test system: human TAS1R2-TAS1R3 heteromer; settings: cited from earlier work
sweet taste [3] = test system: sweet taste; set-up: method as in PMID 11917125, PMID 7812727, PMID 12379598, PMID 10480680; settings: humans; cited from earlier work
sweet taste [4] = test system: sweet taste; set-up: method as in PMID 11917125, PMID 7812727, PMID 12379598, PMID 10480680; settings: rats; cited from earlier work
[5] = test system: rTas1r2 and rTas1r3 mutants m1 – m7 other than m6; experiment: Calcium mobilization (FLIPR), other rTas1r3 mutants (m1-m5, m7); format: cell-based, rat; settings: stimulation with 1 mM stevioside; 1.0 mM lactisole
Source text: Receptor mutants were generated by site directed mutagenesis according to the QuikChange protocol (Stratagene). The forward and reverse complement primers contained the desired mutations and annealed to the same sequence on opposite strands of the plasmids. The following rTas1r3 receptor variants were generated: m1: S576L; m2: R632Q, S635P, S637Q; m3: M644L A645S; m4: A702T; m5: Q717H, V718M, V723A, E725V; m6: L735F, V738A, I740A. m6/1: V738A, I740A, m6/2: L735F, I740A, m6/3: L735F, V738A. m7: A793V, Y794L, Q795R. Subsequently a rTas1r3-V738A variant was generated. All constructs were checked by sequencing.
as §1, with “Cells were washed 3x in solution C1 (130 mM NaCl, 5 mM KCl, 10 mM Hepes, 2 mM CaCl2, and 5 mM Glucose, pH 7,4).” left out, “Ligands (Sigma-Aldrich, Merck) were dissolved in C1 solution. All data were collected from at least two independent experiments carried out in triplicate.” left out

activation of receptor (calcium response) (hTAS1R2-hTAS1R3): elevated intracellular calcium levels
activation of receptor (calcium response) ([1]; asp 15 mM, cyc 30 mM, neo 0.1 mM, sac 10 mM, suc 100 mM, stev 1 mM): responded
Molecule: O=C1NS(=O)(=O)c2ccccc21 [saccharin]

Molecule: thaumatin
activation of heteromer [2]: only activate the human

Molecule: brazzein: sweet protein (QDKCKKVYENYPVSKCQLANQCNYDCKLDKHARSGECFYDEKRNLQCICDYCEY; UniProt P56552 1-54, looked up)
activation of heteromer [2]: only activate the human

Molecule: monellin
activation of heteromer [2]: only activate the human

Molecule: COc1ccc(OC(C)C(=O)O)cc1 (stereo not drawn) [lactisole, 2-(4-methoxphenoxy) propanoic acid sodium salt]
suppression of the sweet taste of various compounds (sweet taste [3]): suppresses the sweet taste
suppression of the sweet taste of various compounds (sweet taste [4]): not in rats
lactisole sensitivity of agonist responses ([1]; 1.0 mM lactisole, all four agonists): lactisole insensitive
lactisole sensitivity conferred to the heteromer [5]: did not
